From patent publication US8993566B2, “Quinoline compound composing 1,2,4-triazine-dione and use thereof” (Wuhan Shengyun Biopharma Co., Ltd., priority 2012, dated 2015)
Converted amounts (≈) assume the structure as drawn.

Tests used:
[1] = tested on: human gastric cancer cell MKN-45; test: In vitro anti-tumor cell activity (MTT), MKN-45; assay type: cell-based; settings: MKN-45 cells, MTT, 72 h, Bliss method; for IC50: Homo sapiens, read-out: MKN-45 IC50
Description: (§1) The digested cell solution was poured into a centrifuge tube, to which a culture media was added to stop the digestion. The centrifuge tube was centrifuged at 800 r/min for 10 min, the supernatant was removed gently and then 5 mL of the culture media was added. The cells were pipetted and mixed homogeneously. 10 μL cell suspension was taken into a cell counting plate for counting, wherein the cell concentration was adjusted to 10^4 cells/well. To each well of a 96-well plate, except for A1 well as blank control, was added 100 μL of the cell suspension. The 96-well plate was placed in an incubator and cultivated for 24 h. […] The 96-well plate was placed in an incubator and cultivated for 72 h. (3) The culture media containing the compounds in the 96-well plate was removed, and the cells were washed with phosphate buffered solution (PBS) twice. To each well was added 100 μL MTT (tetrazole) (0.5 mg/mL), after placing the plate in an incubator to incubate for 4 h, the MTT solution was removed and 100 μL dimethyl sulfoxide was added. The reaction product of survival cells with MTT, i.e. formazan, was dissolved completely by oscillation on a magnetic oscillator, and then placed into a microplate reader to measure the results, and the IC50 values of compounds could be deduced by Bliss method.

[2] = biological target: T1, c-Met kinase (His-tagged recombinant human Met (amino acids 974-end)) (Homo sapiens, UniProt P08581); test: c-Met Enzyme Activity Inhibition Assay (ELISA); assay type: biochemical; settings: 50 pM c-Met, 5 μM ATP, room temperature 20 min; for IC50: read-out: IC50 for inhibiting c-Met kinase (converted)
T1 construct: His-tagged recombinant human Met (amino acids 974-end); His
Description: c-Met Enzyme Activity Inhibition Assay
The assay for the determination of c-Met kinase activity is based on an enzyme linked immunosorbant assay (ELISA). A compound of Formula I, 50 pM c-Met (His-tagged recombinant human Met (amino acids 974-end), expressed by baculovirus), and 5 μM ATP in an assay buffer (25 mM MOPS, pH 7.4, 5 mM MgCl2, […], 100 μM sodium orthovanadate, 0.01% Triton X-100, 1 mM DTT, final DMSO concentration 1% (v/v)) were incubated on a plate coated with 0.25 mg/mL POT at room temperature for 20 min. The reaction mixture was removed by washing and the phosphorylated polymer substrate was detected with 0.2 μg/mL phosphotyrosine specific monoclonal antibody (PY20) conjugated to horseradish peroxidase (HRP). After the addition of 1M phosphoric acid to stop the development, the chromogenic substrate (TMB) color was quantitated by spectrophotometry at 450 nm.

[3] = tested on: human nonsmall-cell lung cancer cell H460; test: In vitro anti-tumor cell activity (MTT), H460; assay type: cell-based; settings: H460 cells, MTT, 72 h, Bliss method; for IC50: Homo sapiens, NCI-H460, read-out: H460 IC50
Description: as §1

[4] = tested on: human colon cancer cell HT-29; test: In vitro anti-tumor cell activity (MTT), HT-29; assay type: cell-based; settings: HT-29 cells, MTT, 72 h, Bliss method; for IC50: Homo sapiens, read-out: HT-29 IC50
Description: as §1

[5] = tested on: human hepatoma carcinoma cell line SMMC-7721; test: In vitro anti-tumor cell activity (MTT), SMMC-7721; assay type: cell-based; settings: SMMC-7721 cells, MTT, 72 h, Bliss method; for IC50: Homo sapiens, read-out: SMMC-7721 IC50
Description: as §1

T1 sequence (P08581 956-1390): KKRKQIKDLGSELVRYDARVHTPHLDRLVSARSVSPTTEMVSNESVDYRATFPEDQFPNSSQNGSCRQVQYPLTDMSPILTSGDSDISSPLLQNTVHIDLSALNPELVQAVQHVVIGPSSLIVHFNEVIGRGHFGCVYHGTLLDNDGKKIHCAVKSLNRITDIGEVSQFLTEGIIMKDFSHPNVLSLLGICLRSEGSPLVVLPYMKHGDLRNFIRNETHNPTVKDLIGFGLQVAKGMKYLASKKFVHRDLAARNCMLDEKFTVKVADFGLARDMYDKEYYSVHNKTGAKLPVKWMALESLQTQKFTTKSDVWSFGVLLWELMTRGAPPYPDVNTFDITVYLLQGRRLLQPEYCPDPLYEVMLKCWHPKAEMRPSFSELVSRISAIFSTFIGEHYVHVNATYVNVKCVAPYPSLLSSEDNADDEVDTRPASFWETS

Compound	MKN-45 IC50 [1]	IC50 for inhibiting c-Met kinase [2]	H460 IC50 [3]	HT-29 IC50 [4]	SMMC-7721 IC50 [5]	IC50 [1]	IC50 [2]	IC50 [3]	IC50 [4]	IC50 [5]
N-[3-fluoro-4-[7-methoxy-6-[3-(4-methyl-1-piperidinyl)propyloxy]quinolin-4-oxy]phenyl]-2-phenyl-4-butyl-3,5-dioxo-2,3,4,5-tetrahydro-1,2,4-triazine-6-carboxamide [Example 28]	0.077 µg/mL	0.31 µg/mL	0.25 µg/mL	0.31 µg/mL	0.44 µg/mL					
COc1cc2c(Oc3ccc(NC(=O)c4nn(-c5ccc(F)cc5)c(=O)n(C)c4=O)cc3F)ccnc2cc1OCCCN1CCN(C)CC1 [Example 10, N-[3-fluoro-4-[6-methoxy-7-[3-(4-methyl-1-piperazinyl)propyloxy]quinolin-4-oxy]phenyl]-2-(4-fluorophenyl)-4-methyl-3,5-dioxo-2,3,4,5-tetrahydro-1,2,4-triazine-6-carboxamide]						0.0065 µg/mL (≈ 0.00945 µM)	106 nM	0.0081 µg/mL (≈ 0.0118 µM)	0.093 µg/mL (≈ 0.135 µM)	0.11 µg/mL (≈ 0.16 µM)
COc1cc2c(Oc3ccc(NC(=O)c4nn(-c5ccc(F)c(F)c5)c(=O)n(C)c4=O)cc3F)ccnc2cc1OCCCN1CCCCC1 [Example 17, N-[3-fluoro-4-[6-methoxy-7-[3-(1-piperidinyl)propyloxy]quinolin-4-oxy]phenyl]-2-(3,4-difluorophenyl)-4-methyl-3,5-dioxo-2,3,4,5-tetrahydro-1,2,4-triazine-6-carboxamide]						0.027 µg/mL (≈ 0.0391 µM)	420 nM	0.22 µg/mL (≈ 0.319 µM)	0.3 µg/mL (≈ 0.434 µM)	0.19 µg/mL (≈ 0.275 µM)
N-[3-fluoro-4-[6-methoxy-7-[3-(4-methyl-1-piperidinyl)propyloxy]quinolin-4-oxy]phenyl]-2-(4-methylphenyl)-4-methyl-3,5-dicarbonyl-2,3,4,5-tetrahydro-1,2,4-triazine-6-carboxamide [Example 14]	2.1 µg/mL	0.088 µg/mL	0.15 µg/mL	0.11 µg/mL	0.88 µg/mL					
COc1cc2c(Oc3ccc(NC(=O)c4nn(-c5ccccc5)c(=O)n(C)c4=O)cc3F)ccnc2cc1OCCCN1CCOCC1 [Example 3, N-[3-fluoro-4-[6-methoxy-7-[3-(4-morpholinyl)propyloxy]quinolin-4-oxy]phenyl]-2-phenyl-4-methyl-3,5-dioxo-2,3,4,5-tetrahydro-1,2,4-triazine-6-carboxamide]						0.059 µg/mL (≈ 0.0898 µM)	88.3 nM	0.17 µg/mL (≈ 0.259 µM)	0.14 µg/mL (≈ 0.213 µM)	0.1 µg/mL (≈ 0.152 µM)
COc1cc2c(Oc3ccc(NC(=O)c4nn(-c5ccc(F)c(F)c5)c(=O)n(C)c4=O)cc3F)ccnc2cc1OCCCN1CCN(C)CC1 [Example 20, N-[3-fluoro-4-[6-methoxy-7-[3-(4-methyl-1-piperazinyl)propyloxy]quinolin-4-oxy]phenyl]-2-(3,4-difluorophenyl)-4-methyl-3,5-dioxo-2,3,4,5-tetrahydro-1,2,4-triazine-6-carboxamide]						0.009 µg/mL (≈ 0.0128 µM)	241 nM	0.28 µg/mL (≈ 0.397 µM)	0.14 µg/mL (≈ 0.198 µM)	0.11 µg/mL (≈ 0.156 µM)
N-[3-fluoro-4-[7-methoxy-6-[3-(1-pyrrolidyl)propyloxy]quinolin-4-oxy]phenyl]-2-(2-trifluoromethylphenyl)-4-butyl-3,5-dicarbonyl-2,3,4,5-tetrahydro-1,2,4-triazine-6-carboxamide [Example 35]	0.005 µg/mL	0.03 µg/mL	0.12 µg/mL	0.079 µg/mL	0.31 µg/mL					
C=CCn1c(=O)c(C(=O)Nc2ccc(Oc3ccnc4cc(OCCCN5CCCC5)c(OC)cc34)c(F)c2)nn(-c2ccc(Cl)cc2)c1=O [Example 38]	0.62 µg/mL	2.76 µg/mL	1.4 µg/mL	0.54 µg/mL	1.8 µg/mL					
N-[3-fluoro-4-[7-methoxy-6-[3-(1-pyrrolidyl)propyloxy]quinolin-4-oxy]phenyl]-2-(3-fluorophenyl)-4-butyl-3,5-dioxo-2,3,4,5-tetrahydro-1,2,4-triazine-6-carboxamide [Example 30]	0.043 µg/mL	0.058 µg/mL	0.18 µg/mL	0.11 µg/mL	0.46 µg/mL					
N-[3-fluoro-4-[6-methoxy-7-[3-(4-methyl-1-piperazinyl)propyloxy]quinolin]-4-oxy]phenyl]-2-(2-fluorophenyl)-4-allyl-3,5-dicarbonyl-2,3,4,5-tetrahydro-1,2,4-triazine-6-carboxamide [Example 41]	0.06 µg/mL	2.7 µg/mL	0.8 µg/mL	1.1 µg/mL	1.4 µg/mL					
N-[3-fluoro-4-[6-methoxy-7-[3-(4-methyl-1-piperidinyl)propyloxy]quinolin-4-oxy]phenyl]-2-phenyl-4-methyl-3,5-dioxo-2,3,4,5-tetrahydro-1,2,4-triazine-6-carboxamide [Example 4]	0.053 µg/mL	0.63 µg/mL	0.087 µg/mL	0.13 µg/mL	0.071 µg/mL					
N-[3-fluoro-4-[6-methoxy-7-[3-(1-piperidinyl)propyloxy]quinolin]-4-oxy]phenyl]-2-(2,4-difluorophenyl)-4-benzyl-3,5-dicarbonyl-2,3,4,5-tetrahydro-1,2,4-triazine-6-carboxamide [Example 44]	0.13 µg/mL	6.1 µg/mL	0.99 µg/mL	0.57 µg/mL	2.5 µg/mL					
N-[3-fluoro-4-[7-methoxy-6-[3-(4-morpholinyl)propyloxy]quinolin-4-oxy]phenyl]-2-(2-fluorophenyl)-4-butyl-3,5-dioxo-2,3,4,5-tetrahydro-1,2,4-triazine-6-carboxamide [Example 29]	0.0009 µg/mL	0.61 µg/mL	0.0056 µg/mL	0.12 µg/mL	0.014 µg/mL					
N-[3-fluoro-4-[6-methoxy-7-[3-(1-piperidinyl)propyloxy]quinolin-4-oxy]phenyl]-2-phenyl-4-methyl-3,5-dioxo-2,3,4,5-tetrahydro-1,2,4-triazine-6-carboxamide [Example 2]	0.032 µg/mL	0.12 µg/mL	0.072 µg/mL	0.18 µg/mL	0.20 µg/mL					
COc1cc2c(Oc3ccc(NC(=O)c4nn(-c5ccc(Cl)cc5)c(=O)n(C)c4=O)cc3F)ccnc2cc1OCCCN1CCCCC1 [Example 26, N-[3-fluoro-4-[6-methoxy-7-[3-(1-piperidinyl)propyloxy]quinolin-4-oxy]phenyl]-2-(4-chlorophenyl)-4-methyl-3,5-dioxa-2,3,4,5-tetrahydro-1,2,4-triazine-6-carboxamide;]	0.011 µg/mL	0.71 µg/mL	0.15 µg/mL	0.08 µg/mL	0.33 µg/mL					
